pIC50: −log10 of the molar value.
Experiments:
[1] = target: T1, KAT6A (Homo sapiens, UniProt Q92794); test: KATs acetyltransferase enzyme activity assay (TR-FRET), KAT6A; format: biochemical; settings: Biotin-H3 (1-21) and AcCOA, 90 minutes at room temperature
T1 construct: purchased Active Motif 81223

[2] = tested on: ZR-75-1 H3K23 Acetylation; test: Histone H3 acetylation assay (H3K23 acetylation in ZR-75-1 cells); format: cell-based; settings: Homo sapiens, 72 hours incubation, Odyssey CLx fluorescence, read-out: ZR-75-1 H3K23 Acetylation Inhibition IC50
Method in brief: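 ZR-75-1 cells exposed to serially diluted compounds for 72 h at 37°C, then fixed with 4 w/v% paraformaldehyde, methanol-permeabilized and immunostained for acetyl-H3K23 and total histone H4. Fluorescent secondary antibody signals quantified by imaging; IC50 from four-parameter logistic nonlinear regression.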

T1 sequence (Q92794 488-778 limits assumed): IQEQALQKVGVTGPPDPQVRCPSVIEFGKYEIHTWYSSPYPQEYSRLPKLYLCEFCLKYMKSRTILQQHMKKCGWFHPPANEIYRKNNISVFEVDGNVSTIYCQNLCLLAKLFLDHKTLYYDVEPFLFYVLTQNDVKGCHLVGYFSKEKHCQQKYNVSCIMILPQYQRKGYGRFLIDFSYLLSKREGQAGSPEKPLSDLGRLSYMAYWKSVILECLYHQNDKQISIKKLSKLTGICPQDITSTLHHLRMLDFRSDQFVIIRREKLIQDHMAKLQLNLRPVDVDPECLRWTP

| Structure (SMILES) | pIC50 [1] | pIC50 [2] |
| --- | --- | --- |
| COc1ccc2c(c1S(=O)(=O)Nc1noc3cc(Cn4cccn4)cc(OC)c13)OCCCO2 [Compound 2, N-(6-((1H-Pyrazol-1-yl)methyl)-4-methoxybenzo[d]isoxazol-3-yl)-7-methoxy-3,4-dihyd ro-2H-benzo[b][1,4]dioxepine-6-sulfonamide] | 8.49 | 8.29 |
| COc1ccc2c(c1S(=O)(=O)Nc1noc3cc(Cn4cccn4)cc(OC)c13)OC[C@@H]1C[C@H]21 [Compound 5-P2, (1aR,7bS)-N-(6-((1H-Pyrazol-1-yl)methyl)-4-methoxybenzo[d]isoxazol-3-yl)-5-methoxy-1,1a,2,7b-tetrahydrocyclopropa[c]chromene-4-sulfonamide] | 8.96 | 9.30 |
